Non-standard residues stand in square brackets, D forms with d. Residues, ends and D or L forms follow the SMILES beside them. *: point of attachment. Orn = NCCC[C@H](N)C(=O)O; Cbz = O=C(OCc1ccccc1)*; Boc = CC(C)(C)OC(=O)*; X1 = CC1CCN=C(N*)S1
Tests used:
[1] = test system: 32D c13 hemopoietic cells; assay: Mass spectrometry analysis of mitochondria isolated from incubated 32D c13 cells; format: cell-based; conditions: 100 μM, two hours at 37° C.
Protocol: An unconjugated and conjugated NOS antagonist, (AMT, 100 μM) and an unconjugated and conjugated nitroxide derivative (4-amino-TEMPO, 100 μM) were incubated for two hours at 37° C. with 32D c13 hemopoietic cells.
Following incubation, the cells were lysed and the mitochondria isolated for a mass spectrometry analysis where compounds isolated from mitochondria were identified as Na+ adducts. […] Thus, the targeting peptides successfully direct a NOS antagonist and a nitroxide to the mitochondria.

MECs [2] = assay: ActD-induced apoptosis in MECs (PS externalization, caspase-3 activation, DNA fragmentation); format: cell-based, mouse; conditions: 10 μM / low concentrations, ActD 100 ng/mL
From the text: Cells that annexin V-positive and PI-negative were considered apoptotic.

MECs [3] = assay: Determination of intracellular superoxide radicals (DHE oxidation, flow cytometry) in ActD-treated MECs; format: cell-based, mouse; conditions: 10 μM pretreatment, ActD 100 ng/mL; nearly two-fold ActD-induced increase
Protocol: Determination of intracellular superoxide radicals Oxidation-dependent fluorogenic dye, dihydroethidium (“DHE”, Molecular Probes) was used to evaluate intracellular production of superoxide radicals. DHE is cell permeable and, in the presence of superoxide, is oxidized to fluorescent ethidium which intercalates into DNA. The fluorescence of ethidium was measured using a FACscan (BECTON-DICKINSON, Rutherford, N.J.) flow cytometer, equipped with a 488-nm argon ion laser and supplied with the Cell Quest software. Mean fluorescence intensity from 10,000 cells were acquired using a 585-nm bandpass filter (FL-2 channel).

[4] = test system: irradiated uroepithelial cells; assay: NO and peroxynitrite production in irradiated uroepithelial cells (microsensor measurements); format: cell-based
Protocol: Further physiological studies were conducted to determine the effects of peptide-targeted AMT and 4-amino-TEMPO on NO and peroxynitrite production in irradiated uroepithelial cells. The cells were cultured in an 8-well slide chamber for 3 days and then microsensor measurements were taken 24 hours after irradiation.
In cells treated with high-dose conjugated 4-amin-TEMPO (100 μM), peroxynitrite production was decreased by approximately 4-fold.

[5] = test system: mouse embryonic cells (MEC); format: cell-based; conditions: 10 μM; with and without K3Fe(CN)6
Protocol: Electron paramagnetic resonance (“EPR”) spectroscopy was used to monitor the cellular delivery of compounds 5a and 5b shown in FIG. 2 in mouse embryonic cells (“MEC”).
The following conditions were used during the EPR-based analysis of the integration and reduction of nitroxide Gramicidin S-peptidyl conjugates in MECs. The MECs at a concentration of 10 million MECs per mL were incubated with 10 μM of 4-AT and compound 5a, respectively. Recovered nitroxide radicals in whole cells, mitochondria, and cytosol fractions were resuspended in phosphate buffer saline (“PBS”) in the presence and absence, respectively, of 2 μM K3Fe(CN)6.

[6] = test system: rat ileal mucosal permeability; assay: Intestinal mucosal permeability assay (FD4 clearance, everted gut sacs) after pressure-controlled hemorrhagic shock; format: in vivo; conditions: for protection against hemorrhagic shock-induced ileal mucosal hyperpermeability: intraluminal, 0.1-100 μM, 2 h shock
Protocol: Intestinal mucosal permeability assay. Animals were allowed access to water but not food for 24 h prior to the experiment in order to decrease the volume of intestinal contents. The rats were instrumented as described above.
A midline laparotomy was performed and the small intestine was exteriorized from the duodenojejunal junction to the ileocecal valve. A small incision was made on the antimesenteric aspect of the proximal small intestine and saline solution (1.5 ml) was injected. The bowel was ligated proximally and distally to the incision with 4-0 silk (LOOK, Reading, Pa.).
The small intestine was compressed gently in aboral direction along its length to displace intestinal contents into the colon. Starting 5 cm from the ileocecal valve, the ileum was partitioned into six contiguous water-tight segments. Each segment was 3 cm long and was bounded proximally and distally by constricting circumferential 4-0 silk sutures. Care was taken to ensure that the vascular supply to intestine was not compromised, and each segment was well-perfused.
Two randomly selected segments in each rat were injected with 0.3 ml of vehicle and served as “no treatment” controls. In order to fill the segments, a small incision was made and the solution was injected using a Teflon catheter (ABBOCATH 16Ga, ABBOTT LABORATORIES).
The remaining four other segments were injected with solutions containing either 4-hydroxy-2,2,6,6-tetramethylpiperidine-N-oxyl (TEMPOL) or one of the Gramicidin S-based compounds. Four different final concentrations of TEMPOL in normal saline were evaluated: 0.1, 1, 5 and 20 mM. The hemigramicidin-based compounds were dissolved in a mixture of dimethylsulfoxide (DMSO) and normal saline (1:99 v/v) and injected at final concentrations of 0.1, 1, 10 or 100 μM.
After the segments were loaded with saline or the test compounds, the bowel was replaced inside the peritoneal cavity and the abdominal incision was temporarily closed using Backhaus forceps.
After a 5 min stabilization period, hemorrhagic shock was induced by withdrawing blood via the jugular catheter. MAP was maintained at 30±3 mm Hg for 2 hours. The shed blood was re-infused as needed to maintain MAP within the desired range.
After 2 h of shock, the animals were euthanized with an intracardiac KCl bolus injection. The ileum was rapidly excised from the ileocecal valve to the most proximal gut segment. The tips of each segment were discarded. In order to assay caspases 3 and 7 activity and phospholipids peroxidation, mucosa samples were collected from gut segments immediately after hemorrhage and stored at −80° C. For permeability measurements, each segment was converted into an everted gut sac, as previously described by Wattanasirichaigoon et al., see Wattanasirichaigoon, S. et al., Effect of mesenteric ischemia and reperfusion or hemorrhagic shock on intestinal mucosal permeability and ATP content in rats, SHOCK, 12:127-133 (1999).
Briefly, as per the Wattanasirichaigoon protocol referenced above, the sacs were prepared in ice-cold modified Krebs-Henseleit bicarbonate buffer (“KHBB”), pH 7.4. One end of the gut segment was ligated with a 4-0 silk suture; the segment was then everted onto a thin plastic rod. The resulting gut sac was mounted on a Teflon catheter (Abbocath 16GA, Abbot Laboratories) connected to a 3 ml plastic syringe containing 1.5 ml of KHBB. The sac was suspended in a beaker containing KHBB plus fluorescein-isothiocyanate labeled dextran (average molecular mass 4 kDa; FD4; 0.1 mg/ml). This solution was maintained at 37° C., and oxygenated by bubbling with a gas mixture (O2 95%/CO2 5%). After 30 min, the fluid within the gut sac was collected. The samples were cleared by centrifugation at 2000 g for 5 min.
Fluorescence of FD4 in the solution inside the beaker and within each gut sac was measured using a fluorescence spectrophotometer (LS-50, PERKIN-ELMER, Palo Alto, Calif.) at an excitation wavelength of 492 nm and an emission wavelength of 515 nm. […]

mitochondrial membrane = assay: Quantitative mass spectrometry of AMT peptide conjugates permeating the mitochondrial membrane; format: cell-based; conditions: for Fmole/l0M mitochondrial protein: relative quantification of conjugate concentration at the target site
Protocol: Quantitative mass spectrometry studies were used to compare the effectiveness of several AMT peptide conjugates in permeating the mitochondrial membrane, specifically XJB-5-234, XJB-5-133, XJB-5-241, and XJB-5-127. The Fmole/10 μM mitochondrial protein ratio provides a relative quantification of conjugate concentration at the target site.

## CC1(C)CC(N)CC(C)(C)N1[O] [4-AT, 4-amino-TEMPO, reference compound]
[1]
  permeation of the mitochondrial membrane (mass spectrometry of isolated mitochondria): only permeate the mitochondrial membrane with the assistance of the attached GS-derived targeting sequence
MECs [2]
  protection of MECs against ActD-induced apoptosis: afforded no protection
MECs [3]
  intracellular superoxide generation in MECs: no effect
[4]; 100 μM, 24 hours after irradiation
  capsaicin-evoked peroxynitrite formation compared with untreated irradiated cells: comparable amount of peroxynitrite
[5]
  integration and one-electron reduction in MECs (EPR signal increase upon ferricyanide): did not effectively permeate cells or the mitochondria

## CC1CCN=C(N)S1 (centres unmarked) [AMT, 2-amino-6-methyl-thiazine]
[1]
  permeation of the mitochondrial membrane (mass spectrometry of isolated mitochondria): do not enter the mitochondria membrane in substantial quantities
[4]
  radioprotectant effectiveness compared with 4-amino-TEMPO: more effective radioprotectant
[4]; 10 μM, 24 hours after irradiation
  NO induced peroxynitrite formation: comparable amount of peroxynitrite

## CC1(C)CC(O)CC(C)(C)N1[O] [TEMPOL, 4-hydroxy-2,2,6,6-tetramethylpiperidine-N-oxyl, reference compound]
[6]; intraluminal, 0.1, 1, 5 and 20 mM tested
  concentrations in the gut lumen that ameliorated hemorrhagic shock-induced ileal mucosal hyperpermeability: > 1 mM

## CC(C)C[C@H](NC(=O)OC(C)(C)C)C(=O)N[C@H](Cc1ccccc1)C(=O)N1CCC[C@H]1C(=O)N[C@H](C(=O)N[C@@H](CCCNC(=O)OCc1ccccc1)C(=O)NC1=NCCC(C)S1)C(C)C (stereo partly drawn) [XJB-5-127, Boc-Leu-^DPhe-Pro-Val-Orn(Cbz)-AMT] (Boc-L[dF]PV[Orn](Cbz)-X1)
Mitochondrial membrane
  biological activity compared with XJB-5-241: less biologically active
[6]
  protection against hemorrhagic shock-induced ileal mucosal hyperpermeability: Ineffective

## CC(C)C[C@@H](/C=C/[C@H](Cc1ccccc1)C(=O)N1CCC[C@H]1C(=O)N[C@H](C(=O)N[C@@H](CCCNC(=O)OCc1ccccc1)C(=O)NC1=NCCC(C)S1)C(C)C)NC(=O)OC(C)(C)C (stereo partly drawn) [XJB-5-133, Boc-Leu-ψ[(E)-CH═CH]-^DPhe-Pro-Val-Orn(Cbz)-AMT]
Mitochondrial membrane
  biological activity compared with XJB-5-241: less biologically active
  Fmole/l0M mitochondrial protein: 89.8 Fmole/l0M mitochondrial protein
[6]
  protection against hemorrhagic shock-induced ileal mucosal hyperpermeability: did not afford protection

## CC(C)C[C@@H](/C=C/[C@H](Cc1ccccc1)C(=O)NC1=NCCC(C)S1)NC(=O)OC(C)(C)C (stereo partly drawn) [XJB-5-234, Boc-Leu-ψ[(E)-CH═CH]-^DPhe-AMT]
Mitochondrial membrane
  Fmole/l0M mitochondrial protein: 1.45 Fmole/l0M mitochondrial protein

## C/C(=C\[C@H](Cc1ccccc1)C(=O)N1CCC[C@H]1C(=O)N[C@H](C(=O)N[C@@H](CCCNC(=O)OCc1ccccc1)C(=O)NC1=NCCC(C)S1)C(C)C)[C@H](CC(C)C)NC(=O)OC(C)(C)C (stereo partly drawn) [XJB-5-241, Boc-Leu-ψ[(E)-C(CH3)═CH]-^DPhe-Pro-Val-Orn(Cbz)-AMT]
Mitochondrial membrane; among XJB-5-234, XJB-5-133, XJB-5-241 and XJB-5-127
  ranking of conjugates in permeating the mitochondrial membrane: most efficacious conjugate
Mitochondrial membrane
  Fmole/l0M mitochondrial protein: 103.3 Fmole/l0M mitochondrial protein
